{
  "source": "patent US4434788A",
  "about": "“Enhancer of anti-tumor effect” (Yamasa Shoyu Kabushiki Kaisha, priority 1980, dated 1984)",
  "key": {"[1]": {"test_system": "potentially lethal damage repair", "experiment": "PLDR-inhibiting / radiosensitizing activity (general statements)"}, "EMT-6 tumors": {"test_system": "EMT-6 tumors", "experiment": "Radiosensitizing effect on EMT-6 tumor in mouse, cure percentage and TCD50", "format": "in vivo, BALB/c-strain female mice", "details": "100 mg/kg i.p. after irradiation; for Cure number/Number treated / Cure percentage: >90 days", "experimental": "EMT-6 tumor cells (2×10^5) were inoculated intradermally into the right thighs of BALB/c-strain female mice (8 weeks old). When the tumor sizes reached 5.5 to 8.0 mm after inoculation of the tumor cells, irradiation was locally carried out with 1,000 rad to 2,700 rad of 32 MeV electron beam under no anesthesia, and thereafter 3'-dAdo and 3'-dGuo, each dissolved in physiological saline solution, were administered intraperitoneally in a dose of 100 mg/kg. After the treatments, observation was continued for longer than 90 days, and the cure percentages were determined for comparison with the control group. [formula]\n(2) TCD50 =50% Tumor control dose"}, "adenosinedeaminase": {"test_system": "adenosinedeaminase", "details": "in bodies; cited from earlier work"}, "LD50 (i.p.) of 3'-dAdo": {"experiment": "LD50 (i.p.) of 3'-dAdo", "details": "in vivo, ip"}},
  "data": [
    {"smiles": "Nc1ncnc2c1ncn2[C@@H]1O[C@H](CO)C[C@H]1O", "note": "[3'-dAdo, 3'-deoxyadenosine, reference compound]", "values": [
      {"measurement": "Radiosensitizing activity", "setting": "[1]", "value": "excellent radiosensitizing activities"},
      {"measurement": "PLDR-inhibiting ability of 3'-dAdo in combination with 2'-deoxycoformycin", "setting": "[1]; combination of 3'-dAdo with 2'-deoxycoformycin", "value": "can be strengthened and prolonged"},
      {"measurement": "TCD50 (50% Tumor control dose)", "setting": "EMT-6 tumors; radiation doses given in rad, control 2400", "value": 1600, "unit": "rad"},
      {"measurement": "TCD50 ratio", "setting": "EMT-6 tumors; relative to control 1.0", "value": 0.67},
      {"measurement": "Cure number/Number treated", "setting": "EMT-6 tumors; 1,000 rad, control 1/23", "value": "3/18"},
      {"measurement": "Cure percentage", "setting": "EMT-6 tumors; 1,000 rad, control 4%", "value": 17, "unit": "%"},
      {"measurement": "Cure number/Number treated", "setting": "EMT-6 tumors; 1,500 rad, control 8/44", "value": "14/29"},
      {"measurement": "Cure percentage", "setting": "EMT-6 tumors; 1,500 rad, control 18%", "value": 48, "unit": "%"},
      {"measurement": "Cure number/Number treated", "setting": "EMT-6 tumors; 2,100 rad, control 9/24", "value": "11/14"},
      {"measurement": "Cure percentage", "setting": "EMT-6 tumors; 2,100 rad, control 38%", "value": 79, "unit": "%"},
      {"measurement": "Cure number/Number treated", "setting": "EMT-6 tumors; 2,700 rad, control 13/28", "value": "10/15"},
      {"measurement": "Cure percentage", "setting": "EMT-6 tumors; 2,700 rad, control 47%", "value": 67, "unit": "%"},
      {"measurement": "Inactivation by adenosinedeaminase", "setting": "adenosinedeaminase", "value": "readily inactivated by adenosinedeaminase in bodies"},
      {"measurement": "LD50", "setting": "LD50 (i.p.) of 3'-dAdo", "value": 280, "unit": "mg/kg"}
    ]}
  ]
}
